Reference: the NIST ThermoML archive (doi:10.1016/j.tca.2012.08.011)

Experiment: xn = mol fraction of the nth substance listed
Settings: 101 kPa, Liquid; for speed of sound: Linear variable-path acoustic interferometer; for mass density: Vibrating tube method

NC1CCCCC1 [cyclohexylamine] + c1ccccc1
Settings	mass density [kg/m3]	speed of sound [m/s]
293.15 K, x1 = 0.0621	877.45	1328
293.15 K, x1 = 0.0938	876.73	1331
293.15 K, x1 = 0.1434	875.68	1335.6
293.15 K, x1 = 0.1546	875.47	1336.6
293.15 K, x1 = 0.2031	874.52	1341.3
293.15 K, x1 = 0.2475	873.73	1345.8
293.15 K, x1 = 0.2972	872.9	1350.9
293.15 K, x1 = 0.3472	872.15	1356.1
293.15 K, x1 = 0.3945	871.5	1361.2
293.15 K, x1 = 0.4786	870.45	1370.2
293.15 K, x1 = 0.4948	870.28	1372.1
293.15 K, x1 = 0.5013	870.2	1372.6
293.15 K, x1 = 0.5389	869.83	1376.9
293.15 K, x1 = 0.5396	869.83	1377
293.15 K, x1 = 0.5419	869.8	1377.1
293.15 K, x1 = 0.5927	869.3	1382.8
293.15 K, x1 = 0.6428	868.89	1388.4
293.15 K, x1 = 0.6927	868.55	1394.2
293.15 K, x1 = 0.7465	868.2	1400.3
293.15 K, x1 = 0.7962	867.93	1405.9
293.15 K, x1 = 0.8474	867.74	1411.9
293.15 K, x1 = 0.897	867.61	1418
293.15 K, x1 = 0.9485	867.49	1424.2
293.15 K, x1 = 1	867.39	1430.5
298.15 K, x1 = 0.0621	872.22	1304.7
298.15 K, x1 = 0.0938	871.52	1307.7
298.15 K, x1 = 0.1434	870.56	1312.3
298.15 K, x1 = 0.1546	870.34	1313.4
298.15 K, x1 = 0.2031	869.46	1318.1
298.15 K, x1 = 0.2475	868.71	1322.7
298.15 K, x1 = 0.2972	867.95	1327.9
298.15 K, x1 = 0.3472	867.25	1333.3
298.15 K, x1 = 0.3945	866.64	1338.4
298.15 K, x1 = 0.4786	865.69	1347.5
298.15 K, x1 = 0.4948	865.5	1349.2
298.15 K, x1 = 0.5013	865.45	1349.9
298.15 K, x1 = 0.5389	865.08	1354.3
298.15 K, x1 = 0.5396	865.08	1354.4
298.15 K, x1 = 0.5419	865.06	1354.6
298.15 K, x1 = 0.5927	864.62	1360.2
298.15 K, x1 = 0.6428	864.23	1365.8
298.15 K, x1 = 0.6927	863.88	1371.8
298.15 K, x1 = 0.7465	863.59	1378
298.15 K, x1 = 0.7962	863.33	1383.7
298.15 K, x1 = 0.8474	863.17	1389.9
298.15 K, x1 = 0.897	863.04	1396
298.15 K, x1 = 0.9485	862.94	1402.4
298.15 K, x1 = 1	862.85	1408.8
303.15 K, x1 = 0.0621	866.94	1281.5
303.15 K, x1 = 0.0938	866.31	1284.3
303.15 K, x1 = 0.1434	865.4	1289.2
303.15 K, x1 = 0.1546	865.2	1290.3
303.15 K, x1 = 0.2031	864.38	1295.1
303.15 K, x1 = 0.2475	863.69	1299.7
303.15 K, x1 = 0.2972	862.98	1305.2
303.15 K, x1 = 0.3472	862.36	1310.6
303.15 K, x1 = 0.3945	861.76	1315.6
303.15 K, x1 = 0.4786	860.88	1325
303.15 K, x1 = 0.4948	860.72	1326.9
303.15 K, x1 = 0.5013	860.67	1327.4
303.15 K, x1 = 0.5389	860.32	1331.8
303.15 K, x1 = 0.5396	860.32	1331.9
303.15 K, x1 = 0.5419	860.3	1332.1
303.15 K, x1 = 0.5927	859.9	1337.9
303.15 K, x1 = 0.6428	859.54	1343.5
303.15 K, x1 = 0.6927	859.24	1349.5
303.15 K, x1 = 0.7465	858.96	1355.6
303.15 K, x1 = 0.7962	858.72	1361.5
303.15 K, x1 = 0.8474	858.58	1367.9
303.15 K, x1 = 0.897	858.47	1374.1
303.15 K, x1 = 0.9485	858.38	1380.5
303.15 K, x1 = 1	858.31	1387.3
308.15 K, x1 = 0.0621	861.67	1258.4
308.15 K, x1 = 0.0938	861.08	1261.5
308.15 K, x1 = 0.1434	860.23	1266.2
308.15 K, x1 = 0.1546	860.04	1267.5
308.15 K, x1 = 0.2031	859.28	1272.5
308.15 K, x1 = 0.2475	858.65	1277.2
308.15 K, x1 = 0.2972	857.99	1282.6
308.15 K, x1 = 0.3472	857.38	1288.1
308.15 K, x1 = 0.3945	856.87	1293.2
308.15 K, x1 = 0.4786	856.07	1302.7
308.15 K, x1 = 0.4948	855.9	1304.6
308.15 K, x1 = 0.5013	855.87	1305.1
308.15 K, x1 = 0.5389	855.55	1309.4
308.15 K, x1 = 0.5396	855.55	1309.5
308.15 K, x1 = 0.5419	855.53	1309.8
308.15 K, x1 = 0.5927	855.17	1315.5
308.15 K, x1 = 0.6428	854.84	1321.3
308.15 K, x1 = 0.6927	854.58	1327.3
308.15 K, x1 = 0.7465	854.32	1333.5
308.15 K, x1 = 0.7962	854.16	1339.7
308.15 K, x1 = 0.8474	853.99	1345.9
308.15 K, x1 = 0.897	853.9	1352.2
308.15 K, x1 = 0.9485	853.83	1359
308.15 K, x1 = 1	853.76	1366
313.15 K, x1 = 0.0621	856.39	1235.4
313.15 K, x1 = 0.0938	855.84	1238.6
313.15 K, x1 = 0.1434	855.11	1243.5
313.15 K, x1 = 0.1546	854.94	1244.6
313.15 K, x1 = 0.2031	854.22	1249.7
313.15 K, x1 = 0.2475	853.65	1254.5
313.15 K, x1 = 0.2972	853.04	1260
313.15 K, x1 = 0.3472	852.51	1265.6
313.15 K, x1 = 0.3945	852.03	1270.9
313.15 K, x1 = 0.4786	851.24	1280.4
313.15 K, x1 = 0.4948	851.15	1282.3
313.15 K, x1 = 0.5013	851.07	1283
313.15 K, x1 = 0.5389	850.78	1287.3
313.15 K, x1 = 0.5396	850.78	1287.4
313.15 K, x1 = 0.5419	850.75	1287.7
313.15 K, x1 = 0.5927	850.43	1293.5
313.15 K, x1 = 0.6428	850.14	1299.4
313.15 K, x1 = 0.6927	849.92	1305.2
313.15 K, x1 = 0.7465	849.68	1311.7
313.15 K, x1 = 0.7962	849.53	1317.8
313.15 K, x1 = 0.8474	849.39	1324.1
313.15 K, x1 = 0.897	849.32	1330.5
313.15 K, x1 = 0.9485	849.27	1337.5
313.15 K, x1 = 1	849.23	1344.5
318.15 K, x1 = 0.0621	851.07	1212.6
318.15 K, x1 = 0.0938	850.53	1215.7
318.15 K, x1 = 0.1434	849.85	1220.9
318.15 K, x1 = 0.1546	849.69	1221.9
318.15 K, x1 = 0.2031	849.06	1227.1
318.15 K, x1 = 0.2475	848.53	1232
318.15 K, x1 = 0.2972	847.99	1237.5
318.15 K, x1 = 0.3472	847.44	1243.2
318.15 K, x1 = 0.3945	847.06	1248.6
318.15 K, x1 = 0.4786	846.39	1258.2
318.15 K, x1 = 0.4948	846.28	1260
318.15 K, x1 = 0.5013	846.24	1260.8
318.15 K, x1 = 0.5389	845.99	1265.3
318.15 K, x1 = 0.5396	845.99	1265.4
318.15 K, x1 = 0.5419	845.99	1265.7
318.15 K, x1 = 0.5927	845.7	1271.5
318.15 K, x1 = 0.6428	845.45	1277.4
318.15 K, x1 = 0.6927	845.29	1283.3
318.15 K, x1 = 0.7465	845.06	1289.9
318.15 K, x1 = 0.7962	844.93	1295.8
318.15 K, x1 = 0.8474	844.84	1302.4
318.15 K, x1 = 0.897	844.74	1308.8
318.15 K, x1 = 0.9485	844.71	1315.9
318.15 K, x1 = 1	844.68	1323.1
323.15 K, x1 = 0.0621	845.7	1190.1
323.15 K, x1 = 0.0938	845.26	1193.2
323.15 K, x1 = 0.1434	844.64	1198.3
323.15 K, x1 = 0.1546	844.5	1199.4
323.15 K, x1 = 0.2031	843.92	1204.6
323.15 K, x1 = 0.2475	843.45	1209.5
323.15 K, x1 = 0.2972	842.96	1215.1
323.15 K, x1 = 0.3472	842.52	1220.9
323.15 K, x1 = 0.3945	842.14	1226.2
323.15 K, x1 = 0.4786	841.55	1236.1
323.15 K, x1 = 0.4948	841.45	1237.9
323.15 K, x1 = 0.5013	841.42	1238.7
323.15 K, x1 = 0.5389	841.19	1243.1
323.15 K, x1 = 0.5396	841.19	1243.2
323.15 K, x1 = 0.5419	841.19	1243.5
323.15 K, x1 = 0.5927	840.94	1249.5
323.15 K, x1 = 0.6428	840.73	1255.5
323.15 K, x1 = 0.6927	840.66	1261.5
323.15 K, x1 = 0.7465	840.41	1268.1
323.15 K, x1 = 0.7962	840.3	1274.1
323.15 K, x1 = 0.8474	840.24	1280.6
323.15 K, x1 = 0.897	840.16	1287.1
323.15 K, x1 = 0.9485	840.16	1294.4
323.15 K, x1 = 1	840.14	1301.8
